Like-named read-outs stand apart in the source and are kept apart here.
Tests used:
[1] = Aqueous solubility; type: physicochemical
[2] = system: panel of KRas proteins (G12 and Q61 mutations), GDP and GNP states; experiment: 19F CPMG NMR detection of a panel of KRas and HRas proteins; type: binding; details: probe 100 μM, protein 6 μM, 160 ms CPMG
Description: The closely related protein HRas 1–166 contains only one residue difference within the SIIG binding site (Q95 in HRas vs H95 in KRas). HRas was only weakly detected by this method; however, the results with HRas^Q95H closely matched those obtained with KRas^WT.
Figure 3 ^19F CPMG NMR spectroscopy detects a variety of oncogenic KRas proteins. Normalized integrals (I/I0) from ^19F CPMG NMR spectra (160 ms) of 100 μM 9 (a), 12 (b), or 17 (c) in the presence of 6 μM KRas or HRas proteins; values are means ± errors propagated from the SDs of I and I0 (n = 3).
(§1) Preparation of Ras proteins.
(§2) The plasmids for bacterial expression of HRas 1-166 (His-TEV-N; pProEx; ampicillin resistance) and KRas 1-169 (His-TEV-N; pJ411; kanamycin resistance) have been previously published.1 Mutants were obtained by site-directed mutagenesis (Q5, NEB; or Genscript Biotech). BL21(DE3) competent cells were transformed with 1-2 ng of plasmid.
(§3) Cultures for the preparation of natural abundance isotope proteins were grown at 37 °C (A600 0.4 -0.6) in Terrific Broth (Sigma Aldrich), induced (1 mM IPTG), and allowed to express protein overnight at 18 °C. Cultures for the preparation of U -15N proteins were grown and induced in M9 minimal media supplemented with 1 g/L 15NH4Cl (CIL).
Cells were collected by centrifugation, lysed by sonication (Tris buffer pH 8.0, supplemented with 1 mM PMSF or 1 tablet per 50 ml EDTA-free cOmplete, Roche), and cleared by centrifugation. […]
1D 1H (ZGESGP) and 2D 1H-15N fast HSQC (FHSQCCF3GPPH, NS = 8, TDF1 = 256, GARP decoupling) spectra were recorded at 298 K on an 800 MHz Bruker Avance NEO spectrometer equipped with an actively shielded Z-gradient 5 mm TCI cryoprobe (H&F/C/N) using programs from the pulse program library (TopSpin 4.0.8). Spectra were processed and analyzed with Bruker Topspin 4.0 and CCPNMR Analysis v3.5 1H chemical shifts were referenced to 1 mM DSS at 0 ppm; 15N chemical shifts were referenced indirectly with Ξ = 0.101329118. […]

[3] = molecular target: T1, KRas^G12D GDP (Homo sapiens, UniProt P01116, G12D); experiment: 19F CPMG NMR probe binding (I/I0 vs probe concentration), GDP state
T1 construct: HRas 1-166 (His-TEV-N; pProEx; ampicillin resistance) and KRas 1-169; His tag with TEV site (N, cleaved yes); made in house; host or cells: E. coli BL21(DE3)
Excerpt: (§4) We then sought to determine whether these SIIG-binders could serve as probe ligands to detect KRas proteins by ^19F NMR spectroscopy. One-dimensional CPMG experiments [90-(τ-180-τ)n], in which a spin–echo with delay τ is looped n times, attenuate signal intensity as a function of the transverse relaxation rate (R2) and total spin echo time (2·τ·n). Prior studies have shown that reversible binding of proteins to fluorine-containing small molecules induces an increase in the observed ^19F R2 at long values of τ, which maximize the exchange contribution to R2.[24],[25] […] Further modifications to the probe structure were required to improve its binding affinity and the sensitivity of the ^19F CPMG NMR assay.
(§5) The probe and protein concentrations were varied to determine the dependence on each binding partner. The normalized integrals (I/I0) of the probes decreased exponentially with increasing protein concentrations (Figure 2C, Figure S2C,D). The normalized integrals increased with increasing probe concentrations, and KD values for the probe–protein binding were extracted by fitting the data to eq 1 (Figure 2D, SI).
(§6) All non-linear regressions were performed in Graphpad Prism v9 with data points handled as individual values.
(§7) Constrained constants are noted.
(§8) Integrals (I) from single-point CPMG experiments were calculated by dividing the probe’s absolute integral by the standard’s absolute integral (3-trifluoromethylphenol, 3TFMP) from the same sample. The resulting integral values (I) were averaged (n=3) and then normalized by dividing by the measurement obtained in the absence of protein (I0, n=1 or 3). Errors in I/I 0 and -ln(I/I0) were propagated from the standard devi ations (SD) in I and I 0. In all cases, I and I0 were measured from the same premixed aliquot of probe and 3 -trifluoromethylphenol.
(§9) The KD values of probes were calculated by fitting normalized integrals to equation 1 , where I and I0 are the integrals in the presence and absence of protein, respectively, A is a constant in Hz, t is the total spin-echo time (2·τ·n), and [P]0 and [L]0 are the total concentrations of protein and probe, respectively (constraining [P]0 and t). See the supplementary information for derivation.
(§10) I⁄I = e−A∙t∙[P]0⁄(KD+[L]0) (eq 1) […]
as §1, §2, §3
(§11) Cells were collected by centrifugation, lysed by sonication (Tris buffer pH 8.0, supplemented with 1 mM PMSF or 1 tablet per 50 ml EDTA-free cOmplete, Roche), and cleared by centrifugation. His -tagged Ras proteins were isolated with Co TALON resin (Takara Bio), the nucl eotide was exchanged to GDP by dialysis (0.5 mM EDTA), the His tag was cleaved with TEV protease, and the protein was purified by anion exchange (Tris buffer pH 8.0, 50 -500 NaCl gradient, HiTrap Q HP, Cytiva) and gel filtration (HEPES storage buffer pH 7.5 , Superdex 75, GE or Cytiva).
(§12) Nucleotide exchange from GDP to GPPNHP (Jena Biosciences) was performed with samples of protein reserved prior to the final gel filtration purification and according to a published procedure comprising EDTA -mediated exchange, desalting, and cleavage of residual GDP with an alkaline phosphatase (CIP or Quick CIP, NEB) 1-4, and then purified by gel filtration. Proteins were concentrated (10k Amicon Ultra, Millipore) to 0.5-1 mM, concentrations were […]
flash frozen in liquid N2 and stored at -80 °C. […]

[4] = molecular target: T2, KRas^G12D (both nucleotide states) (Homo sapiens, UniProt P01116, G12D); experiment: 19F CPMG NMR detection of KRas^G12D by probes (normalized integrals I/I0); type: binding; details: probe 100 μM, KRas^G12D 6 μM; for sensitivity of detection compared to 3 and 4: 160 ms CPMG; for nucleotide state detected: GDP vs GNP
T2 construct: HRas 1-166 (His-TEV-N; pProEx; ampicillin resistance) and KRas 1-169; His tag with TEV site (N, cleaved yes); made in house; host or cells: E. coli BL21(DE3)
Excerpt: as §4
To improve the sensitivity of this method for oncogenic KRas proteins and to explore the relationship between structure and nucleotide-state specificity, we synthesized a series of derivatives of 3 and 4 with varied structure at the aryl ring expected to be buried deepest within the pocket, and these derivatives were evaluated by CPMG NMR spectroscopy against both nucleotide states of KRas^G12D (6 μM; Figure 2A,B). […] Probe 9 relaxed more slowly in the absence of protein (R2,free = 2.4 Hz) than did compounds containing the C-5 hydroxy group (R2,free = 6.3 Hz for 4, 4.4 Hz for 12, and 5.0 Hz for 17), increasing the sensitivity and dynamic range of integral measurements with this probe (Figure S2). Furthermore, probe 9 was confirmed to be a tighter binder to the SIIG of U–^15N KRas^G12D GDP by HSQC NMR compared to 4 (Figure S3).
Figure 2 SAR of SIIG binders enables more sensitive detection of KRas^G12D. (a) Chemical structures of SIIG binders. (b) Normalized integrals (I/I0) from ^19F CPMG NMR spectra (160 ms) of probes (100 μM) with KRas^G12D (6 μM); values are means ± errors propagated from SD (n = 3). (c) Effect of varying KRas^G12D concentration on I/I0; values are means ± errors propagated from SD (n = 3). (d) Effect of varying probe concentration on I/I0; [P]0 = 6 μM for probes 9 and 12, 3 μM for probe 17; individual points shown (n = 3); data fit to eq 1 (SI).
as §1, §2, §3, §11, §12
flash frozen in liquid N2 and stored at -80 °C.
Storage buffer: 20 mM HEPES, 150 mM NaCl, 1 mM MgCl2. Titrated to pH 7.5 with NaOH. Storage buffer for U- […]

[5] = molecular target: T3, KRas^G12D GNP (Homo sapiens, UniProt P01116, G12D); experiment: 19F CPMG NMR probe binding (I/I0 vs probe concentration), GNP state
T3 construct: HRas 1-166 (His-TEV-N; pProEx; ampicillin resistance) and KRas 1-169; His tag with TEV site (N, cleaved yes); made in house; host or cells: E. coli BL21(DE3)
Excerpt: as §4, §5, §6, §7, §8, §9, §10, §1
as §2, with “plasmid. […]” for “plasmid.”

[6] = molecular target: T1, KRas^G12D GDP; type: binding; details: tested at 60 μM; probe 9 100 µM, protein 2 µM GDP-bound
[7] = molecular target: T4, KRas^G12D GDP and KRas^G12D GNP (Homo sapiens, UniProt P01116, G12D); experiment: Dual-probe (9 and 12 in mixture) 19F CPMG NMR monitoring of both nucleotide states; type: binding; details: 6 μM each state
T4 construct: HRas 1-166 (His-TEV-N; pProEx; ampicillin resistance) and KRas 1-169; His tag with TEV site (N, cleaved yes); made in house; host or cells: E. coli BL21(DE3)
Excerpt: (1 picture or pasted object on this page, not shown here)

[8] = molecular target: KRas^G12D; set-up: method as in PMID 34889605; details: cited from earlier work
[9] = molecular target: T5, U-15N KRas^G12D GDP 1-169 (Homo sapiens, UniProt P01116, G12D); experiment: 1H-15N HSQC NMR binding; details: six peaks fit to single site binding curve; pH 7.4, 298 K, 10% dmso-d6, 50 µM protein; error is SD of six peaks
T5 construct: HRas 1-166 (His-TEV-N; pProEx; ampicillin resistance) and KRas 1-169; His tag with TEV site (N, cleaved yes); made in house; host or cells: E. coli BL21(DE3)

[10] = 19F CPMG 160 ms, varying probe concentration, [P]0 = 6 μM for 9 and 12, 3 μM for 17, fit to eq 1, read-out: KD
[11] = non-linear regression eq 1, t=0.16 s, read-out: KD (extracted value, Table S1)
[12] = 19F CPMG 160 ms, varying probe concentration, [P]0 = 6 μM for 12, 3 μM for 17, fit to eq 1, read-out: KD

Compound | detection of oncogenic KRas proteins [2] | Kd [3, 10] [µM] | Kd [3, 11] [µM] | sensitivity of detection compared to 3 and 4 [4] | nucleotide state detected [4] | other results
C=CC(=O)Nc1cc(Cl)cc(NC(=O)c2cnn(-c3ccc(OC)cc3)c2C(F)(F)F)c1 [compound 2] | – | – | – | – | – | aqueous solubility [1]: very low
Cc1c(Cl)cc(O)cc1NC(=O)c1cnn(-c2ccc(OCCOCC(=O)NCCN)cc2)c1C(F)(F)F [compound 12] | detected both nucleotide states of all oncogene products tested | 310 | 307 | increased sensitivity | detected both nucleotide states with similar sensitivity | Kd [5, 12]: 780 µM; Kd [5, 11]: 778 µM
C=CC(=O)N1CC2(CC(n3nc(-c4ccc5c(cnn5C)c4)c(-c4c(Cl)c(C)cc5[nH]ncc45)c3C)C2)C1 [JDQ443] | – | – | – | – | – | occupancy of the SIIP of KRas^G12D [6]: did not occupy
C#Cc1c(F)ccc2cc(O)cc(-c3ncc4c(N5CC6CCC(C5)N6)nc(OC[C@@]56CCCN5C[C@H](F)C6)nc4c3F)c12 [MRTX1133] | – | – | – | – | – | nucleotide state occupied ([7]; 9 and 12 50 μM each, MRTX849 60 μM, MRTX1133 in excess 15 μM, KD2 30 μM): occupied both nucleotide states; nucleotide state occupied ([7]; substoichiometric quantities (2, 4, and 6 μM)): selectively occupied the GDP-state; Ki ([8]; GDP state): < 1 pM; binding affinity [8]: subpicomolar
NCCNC(=O)COCCOc1ccc(-n2ncc(C(=O)Nc3ccc(O)c(Cl)c3)c2C(F)(F)F)cc1 [compound 9] | most sensitively detected the GDP state of KRas^G12D | 200 | 204 | increased sensitivity | specifically detected the GDP state | Kd [9]: 580 ± 280 µM
Cc1c(NC(=O)c2cnn(-c3ccc(OCCOCC(=O)NCCN)cc3)c2C(F)(F)F)ccc(O)c1Cl [compound 15] | – | – | – | increased sensitivity | – | –
NCCNC(=O)COCCOc1ccc(-n2ncc(C(=O)Nc3cc(O)cc(Cl)c3C3CC3)c2C(F)(F)F)cc1 [compound 14] | – | – | – | increased sensitivity | – | –
NCCNC(=O)COCCOc1ccc(-n2ncc(C(=O)Nc3cc(O)cc4ccccc34)c2C(F)(F)F)cc1 [compound 17] | detected both nucleotide states of all oncogene products tested | 350 | 352 | increased sensitivity | detected both nucleotide states with similar sensitivity | Kd [5, 12]: 390 µM; Kd [5, 11]: 393 µM

Reference: paper PMC9594042, “Probing the KRas Switch II Groove by Fluorine NMR Spectroscopy” (ACS Chemical Biology, 2022)
